Test results from PubChem BioAssay AID328 (DTP/NCI, 2004).
“And” between values parts separate entries of the source, which are not always exact repeats. Equal values may be shown once. Toxic doses and inconclusive results are not listed. The calls were made as follows: active = survival T/C of 150% or more; inactive = T/C below 125% in these data.

Tested on: BDF1 mice, P388 leukemia ip, median survival T/C
Assay: NCI In Vivo Anticancer Drug Screen. Data for tumor model P388 Leukemia (intraperitoneal) in B6D2F1 (BDF1) mice
Conditions: endpoint: median survival time, higher = longer survival
Outline: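 Reported as T/C, where T is the survival measurement in dosed animals and C the same measurement in vehicle controls.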

[1] = dose: 50.0 mg/kg/injection, schedule: Q01DX009 (ip), vehicle: saline
[2] = dose: 100.0 mg/kg/injection, schedule: Q01DX009 (ip), vehicle: saline
[3] = dose: 100.0 mg/kg/injection, schedule: Q04DX003 (ip), vehicle: saline with Tween-80
[4] = dose: 25.0 mg/kg/injection, schedule: Q04DX003 (ip), vehicle: saline with Tween-80
[5] = dose: 12.5 mg/kg/injection, schedule: Q01DX009 (ip), vehicle: saline
[6] = dose: 25.0 mg/kg/injection, schedule: Q01DX009 (ip), vehicle: saline
[7] = dose: 50.0 mg/kg/injection, schedule: Q01DX009 (ip), vehicle: saline with Tween-80
[8] = dose: 100.0 mg/kg/injection, schedule: Q01DX009 (ip), vehicle: saline with Tween-80
[9] = dose: 200.0 mg/kg/injection, schedule: Q01DX009 (ip), vehicle: saline with Tween-80
[10] = dose: 50.0 mg/kg/injection, schedule: Q04DX003 (ip), vehicle: saline
[11] = dose: 100.0 mg/kg/injection, schedule: Q04DX003 (ip), vehicle: saline

Measured: T/C

CN(C)Nc1ncnc2nc[nH]c12
inactive: [1] 95 % of control | [2] 91 % of control | [3] 100 % of control | dose: 200.0 mg/kg/injection, schedule: Q04DX003 (ip), vehicle: saline with Tween-80 114 % of control

CCN(CC)CCOc1cccc(C)c1C
inactive: [4] 96 % of control | dose: 50.0 mg/kg/injection, schedule: Q04DX003 (ip), vehicle: saline with Tween-80 100 % of control | [3] 116 % of control

CCCCCCCCCC[N+](C)(C)CC(O)C[N+](C)(C)CCCCCCCCCC
inactive: dose: 1.56 mg/kg/injection, schedule: Q01DX009 (ip), vehicle: saline 91 % of control and 109 % of control | dose: 3.12 mg/kg/injection, schedule: Q01DX009 (ip), vehicle: saline 104 % of control | dose: 3.13 mg/kg/injection, schedule: Q01DX009 (ip), vehicle: saline 100 % of control and 108 % of control | dose: 6.25 mg/kg/injection, schedule: Q01DX009 (ip), vehicle: saline 100 % of control and 109 % of control and 120 % of control | [5] 107 % of control and 109 % of control and 111 % of control

OC(CN1CCCCC1)c1cc(-c2ccccc2)no1 (stereo not given)
inactive: [6] 100 % of control | [7] 100 % of control | [1] 105 % of control | [8] 100 % of control | [2] 107 % of control | [9] 105 % of control | dose: 200.0 mg/kg/injection, schedule: Q01DX009 (ip), vehicle: saline 88 % of control

OCC1OC(n2cc(Cl)c3cncnc32)C(O)C1O (stereo not given)
inactive: [10] 100 % of control | [11] 90 % of control

O=S1(=O)CC(Cl)(Br)C1 (tested in a mixture with another compound)
inactive: dose: 100.0 mg/kg/injection, schedule: Q01DX009 (ip), vehicle: Klucel (hydroxypropylcellulose) (HPC) 91 % of control

O=S(=O)([O-])NC1CCCCC1.O=S(=O)([O-])NC1CCCCC1.[Hg+2].[Hg+2].[Hg+2].[O-2].[O-2]
inactive: dose: 0.5 mg/kg/injection, schedule: Q01DX009 (ip), vehicle: Klucel (hydroxypropylcellulose) (HPC) 99 % of control | dose: 1.0 mg/kg/injection, schedule: Q01DX009 (ip), vehicle: Klucel (hydroxypropylcellulose) (HPC) 111 % of control | dose: 2.0 mg/kg/injection, schedule: Q01DX009 (ip), vehicle: Klucel (hydroxypropylcellulose) (HPC) 111 % of control | dose: 4.0 mg/kg/injection, schedule: Q01DX009 (ip), vehicle: Klucel (hydroxypropylcellulose) (HPC) 121 % of control | dose: 8.0 mg/kg/injection, schedule: Q01DX009 (ip), vehicle: Klucel (hydroxypropylcellulose) (HPC) 101 % of control

c1ccc2c[n+](CCCCCCCCCC[n+]3ccc4ccccc4c3)ccc2c1
inactive: dose: 1.0 mg/kg/injection, schedule: Q01DX009 (ip), vehicle: saline 104 % of control | dose: 2.0 mg/kg/injection, schedule: Q01DX009 (ip), vehicle: saline 113 % of control | dose: 2.5 mg/kg/injection, schedule: Q01DX009 (ip), vehicle: saline 110 % of control and 115 % of control | dose: 2.6 mg/kg/injection, schedule: Q01DX009 (ip), vehicle: saline 120 % of control | dose: 4.0 mg/kg/injection, schedule: Q01DX009 (ip), vehicle: saline 110 % of control | dose: 5.0 mg/kg/injection, schedule: Q01DX009 (ip), vehicle: saline 107 % of control | dose: 10.0 mg/kg/injection, schedule: Q01DX009 (ip), vehicle: saline 103 % of control and 112 % of control

CCCCCC[N+](CCCCCC)(CCCCCC)CCCCCC
inactive: dose: 3.0 mg/kg/injection, schedule: Q01DX009 (ip), vehicle: saline with Tween-80 123 % of control | dose: 6.0 mg/kg/injection, schedule: Q01DX009 (ip), vehicle: saline with Tween-80 116 % of control and 119 % of control | dose: 6.25 mg/kg/injection, schedule: Q01DX009 (ip), vehicle: saline with Tween-80 114 % of control | dose: 6.25 mg/kg/injection, schedule: Q04DX003 (ip), vehicle: saline with Tween-80 108 % of control | dose: 12.5 mg/kg/injection, schedule: Q04DX003 (ip), vehicle: saline with Tween-80 95 % of control | [4] 113 % of control

CC(=O)OS(C)(=O)=O
inactive: dose: 20.0 mg/kg/injection, schedule: Q04DX003 (ip), vehicle: saline 100 % of control | dose: 40.0 mg/kg/injection, schedule: Q04DX003 (ip), vehicle: saline 95 % of control | dose: 80.0 mg/kg/injection, schedule: Q04DX003 (ip), vehicle: saline 104 % of control | [11] 110 % of control

CCN(CC)Cc1cc(Nc2c3ccccc3nc3cc(Cl)ccc23)ccc1O
inactive: [5] 100 % of control | dose: 12.5 mg/kg/injection, schedule: Q04DX003 (ip), vehicle: saline sonified 104 % of control | [6] 100 % of control | dose: 25.0 mg/kg/injection, schedule: Q04DX003 (ip), vehicle: saline sonified 100 % of control | dose: 50.0 mg/kg/injection, schedule: Q04DX003 (ip), vehicle: saline sonified 104 % of control

CN(C)c1ccc(/C=C/c2cccc(/C=C/c3ccc(N(C)C)cc3)[n+]2[O-])cc1
inactive: dose: 50.0 mg/kg/injection, schedule: Q01DX005 (ip), vehicle: saline with Tween-80 91 % of control | dose: 100.0 mg/kg/injection, schedule: Q01DX005 (ip), vehicle: saline with Tween-80 89 % of control | dose: 200.0 mg/kg/injection, schedule: Q01DX005 (ip), vehicle: saline with Tween-80 93 % of control

Cc1ccc(C(=O)CC(O)(C(F)(F)F)C(F)(F)F)cc1
inactive: dose: 100.0 mg/kg/injection, schedule: Q01DX009 (ip), vehicle: other 100 % of control | dose: 200.0 mg/kg/injection, schedule: Q01DX009 (ip), vehicle: other 95 % of control | dose: 400.0 mg/kg/injection, schedule: Q01DX009 (ip), vehicle: other 121 % of control

COc1cccc(/C=C2\SC(=S)N(CCCN3CCOCC3)C2=O)c1OC
inactive: [7] 91 % of control | [8] 88 % of control

NC(=O)c1cc(OCc2ccccc2)nc2nc(Cl)nc(N)c12
inactive: [7] 100 % of control | [8] 96 % of control | [9] 110 % of control

CC1=CCS(=O)(=O)C1
inactive: dose: 25.0 mg/kg/injection, schedule: Q01DX001 (ip), vehicle: other 95 % of control | [6] 113 % of control | dose: 25.0 mg/kg/injection, schedule: Q04DX003 (ip), vehicle: saline 91 % of control | dose: 50.0 mg/kg/injection, schedule: Q01DX001 (ip), vehicle: other 86 % of control | [1] 100 % of control | [10] 87 % of control | dose: 100.0 mg/kg/injection, schedule: Q01DX001 (ip), vehicle: other 95 % of control | [2] 109 % of control | [11] 91 % of control

CC(C)(O)c1ccccc1[S+]1OC(C)(C)c2ccccc21 (stereo not given)
inactive: dose: 100.0 mg/kg/injection, schedule: Q01DX001 (ip), vehicle: saline with Tween-80 98 % of control | dose: 100.0 mg/kg/injection, schedule: Q01DX001 (ip), vehicle: saline 100 % of control | dose: 200.0 mg/kg/injection, schedule: Q01DX001 (ip), vehicle: saline with Tween-80 103 % of control | dose: 200.0 mg/kg/injection, schedule: Q01DX001 (ip), vehicle: saline 102 % of control | dose: 400.0 mg/kg/injection, schedule: Q01DX001 (ip), vehicle: saline with Tween-80 118 % of control | dose: 400.0 mg/kg/injection, schedule: Q01DX001 (ip), vehicle: saline 117 % of control
